# US11596622B2, “Mazindol treatment for heroin dependence and substance use disorder” (NLS Pharmaceutics AG, priority 2017, dated 2023)
# Tests used:
# μ (MOP) (h) = biological target: T1, μ (MOP) (h) (Homo sapiens, UniProt P35372); test: Radioligand binding, μ opioid receptor (Eurofins CEREP)
# T1 construct: Eurofins CEREP
# From the text: Table A discloses mazindol and Met tested at […] and the compound binding calculated as a percent inhibition of the binding of a radioactively labeled ligand specific for each target (Eurofins CEREP, France).
# An inhibition or stimulation of more than 50% is considered a significant effect of the test compounds. Fifty percent is a common cut-off for further investigation (i.e. determination of IC50 or EC50 values from concentration-response curves). Tables B and C display the binding profiles for Mazindol and Met.
# The results are expressed as a percent of control specific binding obtained in the presence of the test compounds:
# [formula] and as a percent inhibition of control specific binding obtained in the presence of the test compounds: […]
# C57BL/6J mice = test: Effect of treatment on the conditioned place preference induced by heroin; type: in vivo; conditions: for Distance travelled in the drug-paired compartment / Distance travelled in the two compartments (Drug + Vehicle) / Distance travelled in the vehicle-paired compartment / Distance travelled, drug-paired minus vehicle-paired compartment / Time spent in the drug-paired compartment / Time spent in the vehicle-paired compartment / Time spent, drug-paired minus vehicle-paired compartment: mean
# From the text: Conditioned place preference (CPP) is a widely used procedure for studying the potential addictive effect of drugs. CPP is based upon the tendency of rodents to approach a stimulus that has previously been paired with an incentive state induced by a drug. A drug that induces a CPP may be suspected to present reinforcing effects that could lead to addiction. Numerous addictive drugs, such as opiate agonists or stimulants induce a CPP and a behavioral sensitization.
# The effect of mazindol on place preference was examined in C57BL/6J mice using a method similar to the one used by Schlussman et al. (9).
# The third experiments consisted in examining the effects of mazindol and D-amphetamine (at doses chosen from results of the first part of the study) on the place preference induced by heroin at a dose chosen from results of the second experiment, which was 1.25 mg/kg. Mazindol (0.125, 0.25 and 0.5 mg/kg) and D-amphetamine (0.5 mg/kg) were tested.
# Therefore, it was decided to perform an additional experiment to examine the effects on place preference induced by heroin of mazindol at 1 and 2 mg/kg and of D-amphetamine at 1 mg/kg.
# Following the habituation session (on day 1), animals (N=72) were pseudo-randomly assigned to two groups, a Control group (N=12) and a Heroin group (N=60), in a way that there was no significant difference between the two groups for the total distance travelled in the apparatus and for the percentage of time spent and the percentage distance travelled in the grey compartment and in the striped compartment.
# Animals received the following treatments immediately before drug sessions: • Control group: vehicle • Heroin group: heroin (1.25 mg/kg)
# Following the last conditioning session, the Heroin group was pseudo-randomly divided into 5 groups (N=12/group) in a way that there was no significant difference between groups for the total distance travelled in the apparatus and for the percentage of time spent and the percentage distance travelled in the grey compartment and in the striped compartment in habituation session, for the distance travelled in the drug-paired and in the vehicle-paired compartments in conditioning sessions and for the proportion of striped drug-paired compartments.
# Animals received the following treatments before preference session: • Control group: vehicle of mazindol, i.p. 60 min before testing. • Hero group: vehicle of mazindol, i.p. 60 min before testing. • Hero-A 0.5 group: D-amphetamine (0.5 mg/kg), i.p. 30 min before testing. • Hero-Mz 0.125 group: mazindol (0.125 mg/kg), i.p. 60 min before testing. • Hero-Mz 0.25 group: mazindol (0.25 mg/kg), i.p. 60 min before testing. • Hero-Mz 0.5 group: mazindol (0.5 mg/kg), i.p. 60 min before testing.
# Following the habituation session (on day 1), animals (N=72) were pseudo-randomly assigned to three groups, a Control group (N=12), a Heroin group (N=48) and a Mazindol group (N=12), in a way that there was no significant difference between the three groups for the total distance travelled in the apparatus and for the percentage of time spent and the percentage distance travelled in the grey compartment and in the striped compartment.
# Animals received the following treatments before drug sessions: • Control group: vehicle, i.p. immediately before session. • Heroin group: heroin (1.25 mg/kg), i.p. immediately before session. • MAZ 2 group: mazindol (2 mg/kg), i.p. 60 min before session.
# Following the last conditioning session, the Heroin group was pseudo-randomly divided into 4 groups (N=12/group) in a way that there is no significant difference between groups for the total distance travelled in the apparatus and for the percentage of time spent and the percentage distance travelled in the grey compartment and in the striped compartment in habituation session, for the distance travelled in the drug-paired and in the vehicle-paired compartments in conditioning sessions and for the proportion of striped drug-paired compartments. […]
# [1] = cited from earlier work
# [2] = Hero-Mz 0.125: heroin 1.25 mg/kg conditioning, mazindol 0.125 mg/kg i.p. 60 min before preference session
# [3] = Hero-Mz 0.25: heroin 1.25 mg/kg conditioning, mazindol 0.25 mg/kg i.p. 60 min before preference session
# [4] = Hero-Mz 0.5: heroin 1.25 mg/kg conditioning, mazindol 0.5 mg/kg i.p. 60 min before preference session
# [5] = Hero-Mz 1: heroin 1.25 mg/kg conditioning, mazindol 1 mg/kg i.p. 60 min before preference session
# [6] = Hero-Mz 2: heroin 1.25 mg/kg conditioning, mazindol 2 mg/kg i.p. 60 min before preference session
# T1 sequence (P35372 whole entry): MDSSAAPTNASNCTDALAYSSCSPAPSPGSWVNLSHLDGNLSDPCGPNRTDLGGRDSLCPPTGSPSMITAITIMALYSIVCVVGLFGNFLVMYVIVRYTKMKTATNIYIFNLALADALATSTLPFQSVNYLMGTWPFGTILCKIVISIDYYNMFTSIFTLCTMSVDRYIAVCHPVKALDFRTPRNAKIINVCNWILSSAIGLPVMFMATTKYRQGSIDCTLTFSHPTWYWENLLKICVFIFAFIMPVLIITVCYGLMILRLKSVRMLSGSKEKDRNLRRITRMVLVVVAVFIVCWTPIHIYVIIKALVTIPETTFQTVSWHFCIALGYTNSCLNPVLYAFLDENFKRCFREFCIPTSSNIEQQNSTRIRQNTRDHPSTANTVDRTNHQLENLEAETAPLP
compound,measurement,setting,value
"OC1(c2ccc(Cl)cc2)c2ccccc2C2=NCCN21 (stereo not drawn) [Mazindol, 5-(4-chlorophenyl)-2,5-dihydro-3 H-imadazo[2,1-a]isoindol-5-ol]",inhibition at 10 µM,"μ (MOP) (h); 1.0 × 10^−05 M, agonist radioligand, read-out: percent inhibition of the binding of a radioactively labeled ligand",89.9%
same,affinity for μ-opioid receptors,μ (MOP) (h); compared with amphetamines,higher affinity
same,Distance travelled in the drug-paired compartment,C57BL/6J mice; [2],5623.8 cm
same,Distance travelled in the two compartments (Drug + Vehicle),C57BL/6J mice; [2],9800.4 cm
same,Distance travelled in the vehicle-paired compartment,C57BL/6J mice; [2],4176.5 cm
same,"Distance travelled, drug-paired minus vehicle-paired compartment",C57BL/6J mice; [2],1447.3 cm
same,Time spent in the drug-paired compartment,C57BL/6J mice; [2],1105.7 s
same,Time spent in the vehicle-paired compartment,C57BL/6J mice; [2],694.3 s
same,"Time spent, drug-paired minus vehicle-paired compartment",C57BL/6J mice; [2],411.3 s
same,Distance travelled in the drug-paired compartment,C57BL/6J mice; [3],5092.1 cm
same,Distance travelled in the two compartments (Drug + Vehicle),C57BL/6J mice; [3],9390.5 cm
same,Distance travelled in the vehicle-paired compartment,C57BL/6J mice; [3],4298.4 cm
same,"Distance travelled, drug-paired minus vehicle-paired compartment",C57BL/6J mice; [3],793.8 cm
same,Time spent in the drug-paired compartment,C57BL/6J mice; [3],933.9 s
same,Time spent in the vehicle-paired compartment,C57BL/6J mice; [3],866.1 s
same,"Time spent, drug-paired minus vehicle-paired compartment",C57BL/6J mice; [3],67.8 s
same,Distance travelled in the drug-paired compartment,C57BL/6J mice; [4],4411.7 cm
same,Distance travelled in the two compartments (Drug + Vehicle),C57BL/6J mice; [4],8164.5 cm
same,Distance travelled in the vehicle-paired compartment,C57BL/6J mice; [4],3752.8 cm
same,"Distance travelled, drug-paired minus vehicle-paired compartment",C57BL/6J mice; [4],659.0 cm
same,Time spent in the drug-paired compartment,C57BL/6J mice; [4],965.1 s
same,Time spent in the vehicle-paired compartment,C57BL/6J mice; [4],834.9 s
same,"Time spent, drug-paired minus vehicle-paired compartment",C57BL/6J mice; [4],130.1 s
same,Distance travelled in the drug-paired compartment,C57BL/6J mice; [5],5464.5 cm
same,Distance travelled in the two compartments (Drug + Vehicle),C57BL/6J mice; [5],9746.4 cm
same,Distance travelled in the vehicle-paired compartment,C57BL/6J mice; [5],4281.9 cm
same,"Distance travelled, drug-paired minus vehicle-paired compartment",C57BL/6J mice; [5],1182.6 cm
same,Time spent in the drug-paired compartment,C57BL/6J mice; [5],1086.0 s
same,Time spent in the vehicle-paired compartment,C57BL/6J mice; [5],714.0 s
same,"Time spent, drug-paired minus vehicle-paired compartment",C57BL/6J mice; [5],372.0 s
same,Distance travelled in the drug-paired compartment,C57BL/6J mice; [6],7038.9 cm
same,Distance travelled in the two compartments (Drug + Vehicle),C57BL/6J mice; [6],12086.8 cm
same,Distance travelled in the vehicle-paired compartment,C57BL/6J mice; [6],5047.9 cm
same,"Distance travelled, drug-paired minus vehicle-paired compartment",C57BL/6J mice; [6],1990.9 cm
same,Time spent in the drug-paired compartment,C57BL/6J mice; [6],1089.7 s
same,Time spent in the vehicle-paired compartment,C57BL/6J mice; [6],710.3 s
same,"Time spent, drug-paired minus vehicle-paired compartment",C57BL/6J mice; [6],379.3 s
same,effect on the heroin-induced increases of distance travelled and of time spent in the drug-paired compartment,C57BL/6J mice; mazindol 0.125 mg,had no significant effect
same,effect on the heroin-induced increase of time spent in the drug-paired compartment,C57BL/6J mice; mazindol 0.25 mg/kg,Tended to reduce
same,effect on the heroin-induced increase of the difference of distance travelled in the drug-paired vs. vehicle-paired compartment,"C57BL/6J mice; mazindol 0.25 mg/kg, effect partial",Significantly reduced
same,effect on the heroin-induced increase of the difference of distance travelled in the drug-paired vs. vehicle-paired compartment,C57BL/6J mice; mazindol 0.5 mg/kg,Significantly antagonized
same,effect on the heroin-induced increase of time spent in the drug-paired compartment,C57BL/6J mice; mazindol 0.5 mg/kg,Tended to reduce
same,effect on the heroin-induced increase of the difference of distance travelled in the drug-paired vs. vehicle-paired compartment,C57BL/6J mice; mazindol 1 mg/kg,Did not significantly reduce
same,effect on the heroin-induced increase of time spent in the drug-paired compartment,C57BL/6J mice; mazindol 1 mg/kg,Did not significantly modify
same,effect on the heroin-induced increases of distance travelled and of time spent in the drug-paired compartment,C57BL/6J mice; mazindol 2 mg,had no significant effect
same,effect on the place preference induced by heroin,"C57BL/6J mice; mazindol 0.125, 1 and 2 mg/kg i.p. before preference session",did not induce effects suggesting a decrease of the place preference induced by heroin
same,"locomotor activity (total distance travelled, FIG. 3)",C57BL/6J mice; mazindol 0.125-2 mg/kg i.p. before preference session,decreased locomotor activity at all doses tested except 2 mg/kg
same,effect on the place preference induced by heroin,"C57BL/6J mice; mazindol 0.25, 0.5 mg/kg i.p. before preference session",decreased the place preference induced by heroin
same,linearity of pharmacokinetics,"[1]; between 1 mg/day and 4 mg/day, immediate release formulations",linear (independent of the dose)
same,half-life time,"[1]; immediate release formulation, healthy volunteers (Kim 2009)",9.1 ± 1.7 h
same,time to maximum concentrations (Tmax),"[1]; single or repeated oral administration, U.S. Pat. No. 8,293,779",2 to 4 h
